# Columns and labels:
# Experiment in all cases: Cell proliferation assay (MTS)
# Format in all cases: cell-based, human
# VMCUB1 = test system: VMCUB1
# Experimental: (§1) The sensitivity of a panel of human cancer cell lines to the effects of compounds was determined in a standard proliferation assay.
# (§2) Cells were plated in 96 well plates at densities of 1000-6000 cells per well in RPMI media containing 10% FBS. After incubation at 37° C. for 16 hours, various concentrations of compound were added to the assay plates. After incubation for an additional 72 h, the viable cells were determined by the addition of MTS reagent (Promega #3582) to each well for 2 h. MTS is a tetrazolium salt that is bioreduced by metabolically active cells in the presence of an electron coupling reagent to formazan. The formazan product was then quantitated by absorbance at 490 nm, as an indicator of the relative number of live cells. In order to determine the GI50 (concentration at which growth of cells was inhibited by 50%) the relative number of cells present at the time of drug addition was determined by comparison with the MTS readout before the drug was added, and this value was subtracted from the 72 hr value of untreated cells as a measure of cell growth during the assay.
# GTL16 = test system: GTL16
# Experimental: as §1
# (§3) Cells were plated in 96 well plates at densities of 1000-6000 cells per well in RPMI media containing 10% FBS. After incubation at 37° C. for 16 hours, various concentrations of compound were added to the assay plates. After incubation for an additional 72 h, the viable cells were determined by the addition of MTS reagent (Promega #3582) to each well for 2 h. […] The formazan product was then quantitated by absorbance at 490 nm, as an indicator of the relative number of live cells. In order to determine the GI50 (concentration at which growth of cells was inhibited by 50%) the relative number of cells present at the time of drug addition was determined by comparison with the MTS readout before the drug was added, and this value was subtracted from the 72 hr value of untreated cells as a measure of cell growth during the assay.
# SNU668 = test system: SNU668
# Experimental: as §1, §3
# H226 = test system: H226
# Experimental: as §1, §2
# QGP1 = test system: QGP1
# Experimental: as §1, §3
# BT20 = test system: BT20
# Experimental: (§4) The sensitivity of a panel of human cancer cell lines to the effects of compounds was determined in a standard proliferation assay. Cell lines were sourced through the AstraZeneca Cell Bank.
# as §2
# HCT15 = test system: HCT15
# Experimental: as §1, §2
# MDAMB436 = test system: MDAMB436
# Experimental: as §1, §2
# SNU5 = test system: SNU5
# Experimental: as §1, §3
# HUH7 = test system: HUH7
# Experimental: as §1, §2
# HX147 = test system: HX147
# Experimental: as §4, §2
# JURKAT = test system: JURKAT
# Experimental: as §1, §3
# SNU601 = test system: SNU601
# Experimental: as §4, §2
# PC3 = test system: PC3
# Experimental: as §1, §2
# HGC27 = test system: HGC27
# Experimental: as §1, §2
# HPAFII = test system: HPAFII
# Experimental: as §1, §2
# ASPC1 = test system: ASPC1
# Experimental: as §1, §2
# JVM3 = test system: JVM3
# Experimental: as §1, §2
# PANC89 = test system: PANC89
# Experimental: as §1, §2
# NUGC4 = test system: NUGC4
# Experimental: as §1, §2
# CAPAN1 = test system: CAPAN1
# Experimental: as §1, §2
# MOLM13 = test system: MOLM13
# Experimental: as §1, §2
# SMMC7721 = test system: SMMC7721
# Experimental: as §1, §3
# L363 = test system: L363
# Experimental: as §1, §2
# CALU1 = test system: CALU1
# Experimental: as §1, §2
# J82 = test system: J82
# Experimental: as §1, §3
# HS746T = test system: HS746T
# Experimental: as §1, §2
# HPAC = test system: HPAC
# Experimental: as §1, §2
# EBC1 = test system: EBC1
# Experimental: as §1, §3
# H460 = test system: H460
# Experimental: as §1, §2
# U937 = test system: U937
# Experimental: as §1, §2
# NAMALWA = test system: NAMALWA
# Experimental: as §1, §3
# JEKO1 = test system: JEKO1
# Experimental: as §4, §2
# KU1919 = test system: KU1919
# Experimental: as §1, §2
# HRA19 = test system: HRA19
# Experimental: as §4, §2
# MKN74 = test system: MKN74
# Experimental: as §1, §2
# IM95M = test system: IM95M
# Experimental: as §4, §2
# 2313287 = test system: 2313287
# Experimental: as §4, §3
# H1437 = test system: H1437
# Experimental: as §1, §2
# CCK81 = test system: CCK81
# Experimental: as §1, §2
# HCC1569 = test system: HCC1569
# Experimental: as §4, §3
# RERFLCAI = test system: RERFLCAI
# Experimental: as §1, §2
# HEL9217 = test system: HEL9217
# Experimental: as §4, §2
# [1] = Homo sapiens, Stomach, PIK3CA WT
# [2] = Homo sapiens, Blood/lymph, PIK3CA WT
# [3] = Homo sapiens, Pancreas, PIK3CA WT
structure (smiles),measurement,setting,value
"CCn1nc(C2CCN(C(=O)CCO)CC2)nc1-c1cnc(N)c(-c2nnc(C(C)(C)C)o2)n1 [Example 3, 1-(4-(5-(5-amino-6-(5-tert-butyl-1,3,4-oxadiazol-2-yl)pyrazin-2-yl)-1-ethyl-1H-1,2,4-triazol-3-yl)piperidin-1-yl)-3-hydroxypropan-1-one]",Category,VMCUB1,Sensitive (sensitive (GI50<=1.0 μM))
same,GI50,"VMCUB1; Homo sapiens, VM-CUB-1, Bladder, PIK3CA MUT",0.732 µM
same,Category,GTL16,Resistant (resistant (GI50>1.0 μM))
same,GI50,"GTL16; Homo sapiens, GTL 16, Stomach, PIK3CA WT",17.4 µM
same,Category,SNU668,Resistant (resistant (GI50>1.0 μM))
same,GI50,SNU668; [1],15.5 µM
same,Category,H226,Resistant (resistant (GI50>1.0 μM))
same,GI50,"H226; Homo sapiens, NCI-H226, Lung, PIK3CA WT",10.1 µM
same,Category,QGP1,Resistant (resistant (GI50>1.0 μM))
same,GI50,"QGP1; Homo sapiens, QGP-1, Pancreas, PIK3CA WT",4.87 µM
same,Category,BT20,Resistant (resistant (GI50>1.0 μM))
same,GI50,"BT20; Homo sapiens, BT-20, Breast, PIK3CA MUT",2.36 µM
same,Category,HCT15,Resistant (resistant (GI50>1.0 μM))
same,GI50,"HCT15; Homo sapiens, HCT-15, Colon, PIK3CA MUT",7.27 µM
same,Category,MDAMB436,Resistant (resistant (GI50>1.0 μM))
same,GI50,"MDAMB436; Homo sapiens, MDA-MB-436, Breast, PIK3CA WT",30 µM
same,Category,SNU5,Resistant (resistant (GI50>1.0 μM))
same,GI50,"SNU5; Homo sapiens, SNU-5, Stomach, PIK3CA WT",21.2 µM
same,Category,HUH7,Resistant (resistant (GI50>1.0 μM))
same,GI50,"HUH7; Homo sapiens, Huh-7, Liver, PIK3CA WT",16 µM
same,Category,HX147,Resistant (resistant (GI50>1.0 μM))
same,GI50,"HX147; Homo sapiens, Lung, PIK3CA WT",30 µM
same,Category,JURKAT,Resistant (resistant (GI50>1.0 μM))
same,GI50,JURKAT; [2],8.69 µM
same,Category,SNU601,Sensitive (sensitive (GI50<=1.0 μM))
same,GI50,"SNU601; Homo sapiens, SNU-601, Stomach, PIK3CA MUT",0.506 µM
same,Category,PC3,Resistant (resistant (GI50>1.0 μM))
same,GI50,"PC3; Homo sapiens, PC-3, Prostate, PIK3CA WT",3.83 µM
same,Category,HGC27,Resistant (resistant (GI50>1.0 μM))
same,GI50,"HGC27; Homo sapiens, HGC-27, Stomach, PIK3CA MUT",1.5 µM
same,Category,HPAFII,Resistant (resistant (GI50>1.0 μM))
same,GI50,"HPAFII; Homo sapiens, HPAF-II, Pancreas, PIK3CA WT",2.63 µM
same,Category,ASPC1,Resistant (resistant (GI50>1.0 μM))
same,GI50,ASPC1; [3],1.74 µM
same,Category,JVM3,Resistant (resistant (GI50>1.0 μM))
same,GI50,"JVM3; Homo sapiens, JVM-3, Blood/lymph, PIK3CA WT",30 µM
same,Category,PANC89,Resistant (resistant (GI50>1.0 μM))
same,GI50,PANC89; [3],1.62 µM
same,Category,NUGC4,Resistant (resistant (GI50>1.0 μM))
same,GI50,"NUGC4; Homo sapiens, NUGC-4, Stomach, PIK3CA WT",30 µM
same,Category,CAPAN1,Resistant (resistant (GI50>1.0 μM))
same,GI50,"CAPAN1; Homo sapiens, CAPAN-1, Pancreas, PIK3CA WT",30 µM
same,Category,MOLM13,Resistant (resistant (GI50>1.0 μM))
same,GI50,"MOLM13; Homo sapiens, MOLM-13, Blood/lymph, PIK3CA WT",1.22 µM
same,Category,SMMC7721,Resistant (resistant (GI50>1.0 μM))
same,GI50,"SMMC7721; Homo sapiens, SMMC-7721, Liver, PIK3CA WT",30 µM
same,Category,L363,Sensitive (sensitive (GI50<=1.0 μM))
same,GI50,"L363; Homo sapiens, L-363, Blood/lymph, PIK3CA MUT",0.681 µM
same,Category,CALU1,Resistant (resistant (GI50>1.0 μM))
same,GI50,"CALU1; Homo sapiens, Calu-1, Lung, PIK3CA WT",16 µM
same,Category,J82,Resistant (resistant (GI50>1.0 μM))
same,GI50,"J82; Homo sapiens, Bladder, PIK3CA MUT",13.4 µM
same,Category,HS746T,Resistant (resistant (GI50>1.0 μM))
same,GI50,HS746T; [1],5.98 µM
same,Category,HPAC,Resistant (resistant (GI50>1.0 μM))
same,GI50,HPAC; [3],2.16 µM
same,Category,EBC1,Resistant (resistant (GI50>1.0 μM))
same,GI50,"EBC1; Homo sapiens, EBC-1, Lung, PIK3CA WT",8.57 µM
same,Category,H460,Resistant (resistant (GI50>1.0 μM))
same,GI50,"H460; Homo sapiens, NCI-H460, Lung, PIK3CA MUT",30 µM
same,Category,U937,Resistant (resistant (GI50>1.0 μM))
same,GI50,"U937; Homo sapiens, U-937, Blood/lymph, PIK3CA WT",7.34 µM
same,Category,NAMALWA,Resistant (resistant (GI50>1.0 μM))
same,GI50,NAMALWA; [2],17.6 µM
same,Category,JEKO1,Sensitive (sensitive (GI50<=1.0 μM))
same,GI50,"JEKO1; Homo sapiens, JeKo-1, Blood/lymph, PIK3CA WT",0.499 µM
same,Category,KU1919,Resistant (resistant (GI50>1.0 μM))
same,GI50,"KU1919; Homo sapiens, KU-19-19, Bladder, PIK3CA WT",30 µM
same,Category,HRA19,Sensitive (sensitive (GI50<=1.0 μM))
same,GI50,"HRA19; Homo sapiens, Rectum, PIK3CA MUT",0.393 µM
same,Category,MKN74,Resistant (resistant (GI50>1.0 μM))
same,GI50,"MKN74; Homo sapiens, MKN-74, Stomach, PIK3CA WT",30 µM
same,Category,IM95M,Sensitive (sensitive (GI50<=1.0 μM))
same,GI50,"IM95M; Homo sapiens, Stomach, PIK3CA MUT",0.436 µM
same,Category,2313287,Resistant (resistant (GI50>1.0 μM))
same,GI50,2313287; [1],1.34 µM
same,Category,H1437,Resistant (resistant (GI50>1.0 μM))
same,GI50,"H1437; Homo sapiens, NCI-H1437, Lung, PIK3CA WT",30 µM
same,Category,CCK81,Sensitive (sensitive (GI50<=1.0 μM))
same,GI50,"CCK81; Homo sapiens, Colon, PIK3CA MUT",0.803 µM
same,Category,HCC1569,Resistant (resistant (GI50>1.0 μM))
same,GI50,"HCC1569; Homo sapiens, Breast, PIK3CA WT",1.37 µM
same,GI50,"RERFLCAI; Homo sapiens, Lung, PIK3CA WT",30 µM
same,Category,RERFLCAI; RERFLCAI,Resistant (resistant (GI50>1.0 μM))
same,Category,HEL9217,Resistant (resistant (GI50>1.0 μM))
same,GI50,"HEL9217; Homo sapiens, HEL 92.1.7, Blood/lymph, PIK3CA INCON",30 µM
